Assay results published in patent publication US8236523B2, “Camp reporters and high throughput assays” (The Johns Hopkins University, priority 2004, dated 2012).

Experiments:
Type in all cases: cell-based
cAMP [1] = assay: Dual-emission ratio (FRET) imaging of Epac-based cAMP reporters (ICUE1 and targeted fusions) in HEK-293 cells; conditions: HEK293 cells expressing ICUE1, 10 μM ISO, 50 μM FSK
Method: Cell Culture. […] Cells were then transfected with FuGENE-6 transfection reagent (Roche) or calcium phosphate and allowed to grow for 12-24 hours before imaging.
Imaging. Cells were washed twice with Hanks' balanced salt solution buffer after 12- to 24-h incubation at 37° C. culture medium. Cells were maintained in buffer in the dark at room temperature with addition of isoproterenol (Aldrich), forskolin (Calbiochem), Prostaglandin E1 (PGE1) (Sigma), and 8-(4-chloro-phenylthio)-2′-O-methyl adenosine 3′,5′-monophosphate (8-pCPT-2′-O-Me-cAMP) (Axxora Biolog) as indicated. Cells were also treated with P-(4,5-dimethoxy-2-nitrobenzyl) adenosine 3′,5′-monophosphate (DMNB-cAMP) (Molecular Probe).
Cells were imaged on a Zeiss Axiovert 200M microscope with a cooled charge-coupled device camera MicroMAX BFT512 (Roper Scientific) controlled by METAFLUOR 6.2 software (Universal Imaging). Dual-emission ratio imaging used a 420DF20 excitation filter, a 450DRLP dichroic mirror and two emission filters (475DF40 for ECFP, 535DF25 for citrine) alternated by a filter changer Lambda 10-2 (Sutter Instruments). Exposure time was 100-500 ms and images were taken every 8-30 s. Fluorescent images were background-corrected by subtracting autofluorescence intensities of untransfected cells (or background with no cells) from the emission intensities of fluorescent cells expressing reporters. The ratios of cyan to yellow emissions were then calculated at different time points and normalized by dividing all ratios by the emission ratio just prior to stimulation therefore setting the basal emission ratio to 1.

cAMP [2] = assay: High throughput 96-well plate assay using ICUE2 stable HEK293 cells
Method: HEK293 cells which stably express ICUE2 (“ICUE2 stable HEK293 cells”) were grown to confluency in 10 cm dishes in DMEM, 10% FBS, 1% penicillin/streptomycin, and 250 μg/ml G418. HEK-293 cells were transfected with cDNA encoding ICUE2 using calcium phosphate at 40% confluency and allowed to grow for 40 hours. Cells were removed from the dish using 0.05% trypsin, spun down, and replaced with fresh media. ICUE2 stable HEK293 cells were counted on a hemocytometer using trypan blue stain. One hundred fifty thousand (150,000) cells were plated per well on a 96-well clear bottom assay plate in a total of 0.2 ml of media per […] and allowed to double once. Media was removed, cells were washed with Hanks buffered salt solution (HBSS) and then covered with 0.05 ml of HBSS per well. In a separate sterile plate, appropriate drugs were added to each well containing HBSS for a total volume of 0.05 ml. […] A baseline was established in three cycles, each consisting of a full plate reading of yellow intensity, followed by a reading of cyan intensity. Cells were then treated with isoproterenol (ISO; […] Readings were taken in six or twenty additional cycles. […] Baseline FRET ratios were calculated as the average ratio of yellow/cyan for each well before the addition of drug. FRET change was calculated as the percent increase of FRET ratio over baseline for each well during a given cycle. The FRET changes of all wells having undergone the same drug treatment were then averaged within each cycle, and that cycle was correlated with time.

cAMP [3] = assay: 96-well live cell plate reading of HEK293 cells expressing ICUE3; conditions: 1 μM ISO, 50 μM FSK
Method: Plate reading used a 420DF20 excitation filter and two emission filters (470DF40 for cyan and 535DF25 for yellow). A baseline was established in three cycles, each consisting of a full plate reading of yellow intensity, followed by a reading of cyan intensity. Cells were then treated with isoproterenol (ISO; Aldrich), forskolin (Calbiochem), H89, propranolol, and 3-isobutyl-1-methylxanthine (IBMX) as indicated. Readings were taken in six or twenty additional cycles. Each cycle lasted 60 to 145 sec. Baseline FRET ratios were calculated as the average ratio of yellow/cyan for each well before the addition of drug. FRET change was calculated as the percent increase of FRET ratio over baseline for each well during a given cycle. The FRET changes of all wells having undergone the same drug treatment were then averaged within each cycle, and that cycle was correlated with time.
Live cell plate reading. HEK293 cells were transfected with cDNA encoding ICUE reporters using calcium phosphate at 40% confluency and allowed to grow for 40 hours. Cells were then trypsinized and plated in a Costar 3603 96-well assay plate (Coming) at a density of 150,000 cells per well. After incubation for another 24 hours, cells were washed once with HBSS and left in 150 μl HBSS at 20-25° C. Fluorescence reading was taken on a FLUOstar OPTIMA fluorescence microplate reader (BMG Labtechnologies Inc.) using a 420DF20 excitation filter and two emission filters (470DF40 for cyan and […] for yellow). A baseline was established in three cycles, each consisting of a full plate reading of yellow intensity, followed by a reading of cyan intensity. Each cycle lasted between 64 and 145 seconds. Readings were taken in additional cycles. FRET change was calculated as the percent increase of emission ratios (cyan-to-yellow) over baseline for each well during a given cycle. To assess the efficacy of the assay, several statistical parameters were calculated, including Z factor, coefficient of variation, and signal-to-noise ratio (Zhang et al., J. Biomol. Screen. 4, 67-73, 1999).

CC(C)NCC(O)c1ccc(O)c(O)c1 (stereo not shown) [isoproterenol] was tested, and the “time to plateau / maximal change in emission ratio” value (cAMP [1]; 10 μM PGE1) was 1.5 to 3 min, the “increase in the ratio of cyan to yellow emissions (FRET response)” value (cAMP [1]; 10 μM PGE1, 300 μM 8-pCPT-2′-O-Me-cAMP, average ± S.E.M) was 16.8%±1.0 and the “character of ICUE2 response (in words)” value (cAMP [2]; 1 μM ISO, 100 μM IBMX, 50 μM FSK) was “transient responses”. For the same compound, the “Average percent FRET response ± standard deviation, cycle 1” value (cAMP [2]; cycle 1 (1 cycle = 60 seconds), 1 μM Iso, 50 μM Fsk, 10 μM H89, 100 μM IBMX) was 8.22% ± 5.97%, the “Average percent FRET response ± standard deviation, cycle 2” value (cAMP [2]; cycle 2 (1 cycle = 60 seconds), 1 μM Iso, 50 μM Fsk, 10 μM H89, 100 μM IBMX) was 20.2% ± 1.69% and the “Average percent FRET response ± standard deviation, cycle 3” value (cAMP [2]; cycle 3 (1 cycle = 60 seconds), 1 μM Iso, 50 μM Fsk, 10 μM H89, 100 μM IBMX) was 21.59% ± 2.65%. For the same compound, the “Average percent FRET response ± standard deviation, cycle 4” value (cAMP [2]; cycle 4 (1 cycle = 60 seconds), 1 μM Iso, 50 μM Fsk, 10 μM H89, 100 μM IBMX) was 22.44% ± 2.42%, the “Average percent FRET response ± standard deviation, cycle 5” value (cAMP [2]; cycle 5 (1 cycle = 60 seconds), 1 μM Iso, 50 μM Fsk, 10 μM H89, 100 μM IBMX) was 21.47% ± 2.92% and the “Average percent FRET response ± standard deviation, cycle 6” value (cAMP [2]; cycle 6 (1 cycle = 60 seconds), 1 μM Iso, 50 μM Fsk, 10 μM H89, 100 μM IBMX) was 19.64% ± 1.73. The “Average percent FRET response ± standard deviation, cycle 7” value (cAMP [2]; cycle 7 (1 cycle = 60 seconds), 1 μM Iso, 50 μM Fsk, 10 μM H89, 100 μM IBMX) was 17.36% ± 1.28%, the “Average percent FRET response ± standard deviation, cycle 8” value (cAMP [2]; cycle 8 (1 cycle = 60 seconds), 1 μM Iso, 50 μM Fsk, 10 μM H89, 100 μM IBMX) was 15.93% ± 2.0% and the “Average percent FRET response ± standard deviation, cycle 9” value (cAMP [2]; cycle 9 (1 cycle = 60 seconds), 1 μM Iso, 50 μM Fsk, 10 μM H89, 100 μM IBMX) was 14.45% ± 3.55%. The “Average percent FRET response ± standard deviation, cycle 10” value (cAMP [2]; cycle 10 (1 cycle = 60 seconds), 1 μM Iso, 50 μM Fsk, 10 μM H89, 100 μM IBMX) was 11.07% ± 2.19%, the “Average percent FRET response ± standard deviation, cycle 11” value (cAMP [2]; cycle 11 (1 cycle = 60 seconds), 1 μM Iso, 50 μM Fsk, 10 μM H89, 100 μM IBMX) was 6.94% ± 1.93 and the “Average percent FRET response ± standard deviation, cycle 12” value (cAMP [2]; cycle 12 (1 cycle = 60 seconds), 1 μM Iso, 50 μM Fsk, 10 μM H89, 100 μM IBMX) was 2.26% ± 5.45%. For the same compound, the “Average percent FRET response ± standard deviation, cycle 13” value (cAMP [2]; cycle 13 (1 cycle = 60 seconds), 1 μM Iso, 50 μM Fsk, 10 μM H89, 100 μM IBMX) was 2.47% ± 6.06%, the “Average percent FRET response ± standard deviation, cycle 14” value (cAMP [2]; cycle 14 (1 cycle = 60 seconds), 1 μM Iso, 50 μM Fsk, 10 μM H89, 100 μM IBMX) was 2.27% ± 3.37% and the “Average percent FRET response ± standard deviation, cycle 15” value (cAMP [2]; cycle 15 (1 cycle = 60 seconds), 1 μM Iso, 50 μM Fsk, 10 μM H89, 100 μM IBMX) was 1.80% ± 5.84%. For the same compound, the “Average percent FRET response ± standard deviation, cycle 16” value (cAMP [2]; cycle 16 (1 cycle = 60 seconds), 1 μM Iso, 50 μM Fsk, 10 μM H89, 100 μM IBMX) was 1.05% ± 5.87%, the “Average percent FRET response ± standard deviation, cycle 17” value (cAMP [2]; cycle 17 (1 cycle = 60 seconds), 1 μM Iso, 50 μM Fsk, 10 μM H89, 100 μM IBMX) was 1.29% ± 2.72% and the “Average percent FRET response ± standard deviation, cycle 18” value (cAMP [2]; cycle 18 (1 cycle = 60 seconds), 1 μM Iso, 50 μM Fsk, 10 μM H89, 100 μM IBMX) was 1.68% ± 6.12%. The “Average percent FRET response ± standard deviation, cycle 19” value (cAMP [2]; cycle 19 (1 cycle = 60 seconds), 1 μM Iso, 50 μM Fsk, 10 μM H89, 100 μM IBMX) was 2.52% ± 3.54%, the “Average percent FRET response ± standard deviation, cycle 20” value (cAMP [2]; cycle 20 (1 cycle = 60 seconds), 1 μM Iso, 50 μM Fsk, 10 μM H89, 100 μM IBMX) was 0.93% ± 4.45% and the “character of ICUE3 response (in words)” value (cAMP [3]) was “transient responses”. The “maximal response / emission ratio change” value (cAMP [3]; HEK293 cells expressing ICUE3, n=7) was 8.10%±1.4%.
